Experimental data: patent publication US11052092B2, “N-{[2-(piperidin-1-yl)phenyl](phenyl)methyl}-2-(3-oxo-3,4-dihydro-2H-1,4-benzoxazin-7-yl)acetamide derivatives and related compounds as ROR-gamma modulators for treating autoimmune diseases” (Genfit, priority 2017, dated 2021)

molecular target: T1, human RORγt (Homo sapiens, UniProt P51449); test: RORE Luciferase/RORγt transactivation assay; type: cell-based; details: COS-7 cells transfected with human IL-17 promoter luciferase reporter and RORγt plasmid; 20 h with compound; read-out: IC50, RORγt activity inhibition
T1 construct: the full-length cDNA of human RORγt; expressed in transfected cells; host or cells: COS-7 (monkey kidney)
T1 sequence (P51449 1-497 isoform P51449-2): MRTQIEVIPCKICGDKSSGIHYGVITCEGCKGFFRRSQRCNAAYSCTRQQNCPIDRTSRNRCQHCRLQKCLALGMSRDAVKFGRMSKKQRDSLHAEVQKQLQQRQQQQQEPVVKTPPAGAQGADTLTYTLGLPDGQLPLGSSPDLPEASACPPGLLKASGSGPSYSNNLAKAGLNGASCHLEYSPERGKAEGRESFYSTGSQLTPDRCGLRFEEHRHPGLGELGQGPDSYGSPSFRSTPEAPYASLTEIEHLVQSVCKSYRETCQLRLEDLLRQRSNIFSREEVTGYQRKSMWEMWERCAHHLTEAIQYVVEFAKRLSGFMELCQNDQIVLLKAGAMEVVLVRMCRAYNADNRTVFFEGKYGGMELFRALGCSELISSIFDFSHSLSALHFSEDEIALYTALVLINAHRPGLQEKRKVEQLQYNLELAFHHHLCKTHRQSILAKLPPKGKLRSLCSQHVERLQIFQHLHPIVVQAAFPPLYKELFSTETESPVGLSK
Description: It is well known that RORγ binds to a conserved non-coding sequence (CNS) enhancer element in the IL-17 promoter.
Culture medium was changed every 2 days.
The 4.3 Kb human IL-17 promoter containing the RORγ-specific CNS enhancer element was PCR amplified from human genomic DNA and cloned into a pGL3-TKLuc2Cp reporter plasmid.
The luciferase reporter plasmid and the RORγt overexpression plasmid were transfected into COS-7 cell line using 4 μLJetPEI™/μg of DNA. Briefly, 150 ng of DNA (ration ½ between RORE-Tk Luc2Cp and cDNA RORγt or the empty vector for the negative control) was served to transfect adherent COS-7 cells in a […] culture flask, in complete medium (see cos-7 cell line culture).
Cells were then detached (using trypsin) and washed by centrifugation at 300 g for 10 minutes. Cell pellet was resuspended in serum free/phenol red free DMEM and seeded in 384 well plates at a density of 10000 cells/well and then incubated for 4 h at 37° C.
Compounds were dissolved in 100% DMSO to obtain 10 mM stock solutions. For each compound, test concentrations were diluted in serum free/phenol red free DMEM using the Genesis Freedom 200™ (TECAN) and added to the cells to obtain a 0.3% DMSO final concentration (in a final volume of 40 μL per well).
The luciferase activity was then measured with 40 μL/well steady-Glo Luciferase assay system (Promega, Madison, Wis.) and after incubation at room temperature for 30 minutes. The luminescence was estimated using the Ultra384 reader (TECAN). Data were collected and analyzed using GraphPad Prism software (GraphPad Software V5.02, San Diego Calif. USA). IC50 in μM and Emax in % were reported for each compound.

SMILES | IC50
Cc1ccc(C(NC(=O)Cc2ccc3c(c2)C(O)C(=O)N3)c2ccc(C)o2)c(N2CCCCC2)c1 (stereo not drawn) [Cpd. 46, 2-(3-hydroxy-2-oxo-2,3-dihydro-1H-indol-5-yl)-N-{[4-methyl-2-(piperidin-1-yl)phenyl](5-methylfuran-2-yl)methyl}acetamide] | 0.1 to 1 µM
CC(C)=C1C(=O)Nc2ccc(CC(=O)NC(c3ccc(C)o3)c3ccc(C)cc3N3CCCCC3)cc21 (stereo not drawn) [Cpd. 55, N-{[4-methyl-2-(piperidin-1-yl)phenyl](5-methylfuran-2-yl)methyl}-2-[2-oxo-3-(propan-2-ylidene)-2,3-dihydro-1H-indol-5-yl]acetamide] | 0.1 to 1 µM
COc1ccc(C(NC(=O)Cc2ccc3c(ccn3CCC(=O)OC(C)(C)C)c2)c2ccc(C)o2)c(N2CCCCCC2)c1 (stereo not drawn) [Cpd. 110, tert-butyl 3-{5-[({[2-(azepan-1-yl)-4-methoxyphenyl](5-methylfuran-2-yl)methyl}carbamoyl)methyl]-1H-indol-1-yl}propanoate] | 0.1 to 1 µM
Cc1ccc(C(NC(=O)C2(c3ccc4c(c3)C(C)(C)C(=O)N4)CC2)c2ccc(C)o2)c(C)c1 (stereo not drawn) [Cpd. 146, 1-(3,3-dimethyl-2-oxo-2,3-dihydro-1H-indol-5-yl)-N-[(2,4-dimethylphenyl)(5-methylfuran-2-yl)methyl]cyclopropane-1-carboxamide] | 0.01 to 0.1 µM
CCN1c2ccc(C3(C(=O)NC(c4ccc(C)o4)c4ccc(C)cc4C)CC3)cc2CS1(=O)=O (stereo not drawn) [Cpd. 132, N-[(2,4-dimethylphenyl)(5-methylfuran-2-yl)methyl]-1-(1-ethyl-2,2-dioxo-1,3-dihydro-2,1-benzothiazol-5-yl)cyclopropane-1-carboxamide] | 0.01 to 0.1 µM
Cc1ccc(C(NC(=O)C2(c3ccc4c(c3)OCC(=O)N4)CC2)c2cccc(Cl)c2)c(C)c1 (stereo not drawn) [Cpd. 143, N-[(3-chlorophenyl)(2,4-dimethylphenyl)methyl]-1-(3-oxo-3,4-dihydro-2H-1,4-benzoxazin-7-yl)cyclopropane-1-carboxamide] | 0.01 to 0.1 µM
Cc1ccc(C(NC(=O)C2(c3ccc4c(c3)OCC(=O)N4)CC2)c2ccc(Cl)o2)c(N2CCCCC2)c1 (stereo not drawn) [Cpd. 145, N-[(5-chlorofuran-2-yl)[4-methyl-2-(piperidin-1-yl)phenyl]methyl]-1-(3-oxo-3,4-dihydro-2H-1,4-benzoxazin-7-yl)cyclopropane-1-carboxamide] | 0.01 to 0.1 µM
Cc1ccc(C(NC(=O)C2(c3ccc4c(n3)OCC(=O)N4)CC2)c2ccc(C)o2)c(C)c1 (stereo not drawn) [Cpd. 144, N-[(2,4-dimethylphenyl)(5-methylfuran-2-yl)methyl]-1-{2-oxo-1H,2H,3H-pyrido[2,3-b][1,4]oxazin-6-yl}cyclopropane-1-carboxamide] | 0.01 to 0.1 µM
Cc1ccc(C(NC(=O)Cc2ccc3c(ccn3CCC(=O)OC(C)(C)C)c2)c2ccc(C)o2)c(N2CCCCC2)c1 (stereo not drawn) [Cpd. 96, tert-butyl 3-{5-[({[4-methyl-2-(piperidin-1-yl)phenyl](5-methylfuran-2-yl)methyl}carbamoyl)methyl]-1H-indol-1-yl}propanoate] | 0.1 to 1 µM
Cc1ccc(C(NC(=O)C2(c3ccc4c(c3)CCN4C(=O)C3CC3)CC2)c2ccc(C)o2)c(C)c1 (stereo not drawn) [Cpd. 95, 1-(1-cyclopropanecarbonyl-2,3-dihydro-1H-indol-5-yl)-N-[(2,4-dimethylphenyl)(5-methylfuran-2-yl)methyl]cyclopropane-1-carboxamide] | 0.01 to 0.1 µM
COc1ccc(C(NC(=O)C2(c3ccc4c(c3)OCS(=O)(=O)N4)CC2)c2ccc(C)o2)c(Br)c1 (stereo not drawn) [Cpd. 147, N-[(2-bromo-4-methoxyphenyl)(5-methylfuran-2-yl)methyl]-1-(2,2-dioxo-1,3-dihydro-4,2,1-benzoxathiazin-6-yl)cyclopropane-1-carboxamide] | 0.01 to 0.1 µM
CC(C)CC(NC(=O)Cc1ccc2c(c1)OCC(=O)N2)c1ccccc1N1CCCCC1 (stereo not drawn) [Cpd. 6, N-{3-methyl-1-[2-(piperidin-1-yl)phenyl]butyl}-2-(3-oxo-3,4-dihydro-2H-1,4-benzoxazin-7-yl)acetamide] | 1 to 10 µM

The remaining lines, values ahead:

IC50 | SMILES
0.01 to 0.1 µM | Cc1ccc(C(NC(=O)C2(c3ccc4c(c3)CS(=O)(=O)N4CC3CCOCC3)CC2)c2ccc(C)o2)c(N2CCCCC2)c1 (stereo not drawn) [Cpd. 162, N-{[4-methyl-2-(piperidin-1-yl)phenyl](5-methylfuran-2-yl)methyl}-1-[1-(oxan-4-ylmethyl)-2,2-dioxo-1,3-dihydro-2,1-benzothiazol-5-yl]cyclopropane-1-carboxamide]
0.1 to 1 µM | Cc1ccc(C(NC(=O)C2(c3ccc4c(c3)C(F)(F)C(=O)N4)CC2)c2ccc(C)o2)c(C)c1 (stereo not drawn) [Cpd. 159, 1-(3,3-difluoro-2-oxo-2,3-dihydro-1H-indol-5-yl)-N-[(2,4-dimethylphenyl)(5-methylfuran-2-yl)methyl]cyclopropane-1-carboxamide]
0.1 to 1 µM | Cc1ccc(C(NC(=O)C2(c3ccc4c(c3)COC(C)(C)O4)CC2)c2ccc(C)o2)c(C)c1 (stereo not drawn) [Cpd. 169, 1-(2,2-dimethyl-2,4-dihydro-1,3-benzodioxin-6-yl)-N-[(2,4-dimethylphenyl)(5-methylfuran-2-yl)methyl]cyclopropane-1-carboxamide]
0.01 to 0.1 µM | Cc1ccc(C(NC(=O)C2(c3ccc4c(c3)CS(=O)(=O)N4CC3CCOCC3)CC2)c2ccc(C)o2)c(Br)c1 (stereo not drawn) [Cpd. 163, N-[(2-bromo-4-methylphenyl)(5-methylfuran-2-yl)methyl]-1-[1-(oxan-4-ylmethyl)-2,2-dioxo-1,3-dihydro-2,1-benzothiazol-5-yl]cyclopropane-1-carboxamide]
< 0.01 µM | Cc1ccc(C(NC(=O)C2(c3ccc4c(ccn4CCC(=O)O)c3)CC2)c2ccc(C)o2)c(N2CCCCC2)c1 (stereo not drawn) [Cpd. 154, 3-{5-[1-({[4-methyl-2-(piperidin-1-yl)phenyl](5-methylfuran-2-yl)methyl}carbamoyl)cyclopropyl]-1H-indol-1-yl}propanoic acid]
0.01 to 0.1 µM | Cc1ccc(C(NC(=O)C2(c3ccc4c(c3)OCC(=O)N4)CC2)c2ccc(C)o2)c(N(C)C)c1 (stereo not drawn) [Cpd. 156, N-{[2-(dimethylamino)-4-methylphenyl](5-methylfuran-2-yl)methyl}-1-(3-oxo-3,4-dihydro-2H-1,4-benzoxazin-7-yl)cyclopropane-1-carboxamide]
0.01 to 0.1 µM | Cc1ccc(C(NC(=O)Cc2ccc3c(c2)CS(=O)(=O)N3CC2CCOCC2)c2ccc(C)o2)c(C)c1 (stereo not drawn) [Cpd. 166, N-[(2,4-dimethylphenyl)(5-methylfuran-2-yl)methyl]-2-[1-(oxan-4-ylmethyl)-2,2-dioxo-1,3-dihydro-2,1-benzothiazol-5-yl]acetamide]
0.01 to 0.1 µM | Cc1ccc(C(NC(=O)C2(c3ccc4c(ccn4CCC(=O)O)c3)CC2)c2ccc(C)o2)c(C)c1 (stereo not drawn) [Cpd. 152, 3-[5-(1-{[(2,4-dimethylphenyl)(5-methylfuran-2-yl)methyl]carbamoyl}cyclopropyl)-1H-indol-1-yl]propanoic acid]
0.01 to 0.1 µM | Cc1ccc(C(NC(=O)Cc2ccc3c(c2)CS(=O)(=O)N3CC2CCOCC2)c2ccc(C)o2)c(N2CCCCC2)c1 (stereo not drawn) [Cpd. 167, N-{[4-methyl-2-(piperidin-1-yl)phenyl](5-methylfuran-2-yl)methyl}-2-[1-(oxan-4-ylmethyl)-2,2-dioxo-1,3-dihydro-2,1-benzothiazol-5-yl]acetamide]
0.1 to 1 µM | Cc1ccc(C(NC(=O)C2(c3ccc4c(c3)OC(C)(C)OC4)CC2)c2ccc(C)o2)c(C)c1 (stereo not drawn) [Cpd. 168, 1-(2,2-dimethyl-2,4-dihydro-1,3-benzodioxin-7-yl)-N-[(2,4-dimethylphenyl)(5-methylfuran-2-yl)methyl]cyclopropane-1-carboxamide]
0.01 to 0.1 µM | Cc1ccc(C(NC(=O)C2(c3ccc4c(c3)CS(=O)(=O)N4C)CC2)c2ccc(Cl)o2)c(C)c1 (stereo not drawn) [Cpd. 160, N-[(5-chlorofuran-2-yl)(2,4-dimethylphenyl)methyl]-1-(1-methyl-2,2-dioxo-1,3-dihydro-2,1-benzothiazol-5-yl)cyclopropane-1-carboxamide]
0.01 to 0.1 µM | Cc1ccc(C(NC(=O)C2(c3cc(F)c4c(c3)CC(=O)N4)CC2)c2ccc(C)o2)c(C)c1 (stereo not drawn) [Cpd. 158, N-[(2,4-dimethylphenyl)(5-methylfuran-2-yl)methyl]-1-(7-fluoro-2-oxo-2,3-dihydro-1H-indol-5-yl)cyclopropane-1-carboxamide]
